Results from ChEMBL document CHEMBL4002577, “Phenylthiazole antibiotics: A metabolism-guided approach to overcome short duration of action” (Eur J Med Chem, 2017).
Values after ≈ are worked out from the molar mass of the structure shown.

Legend:
[1] = test system: Staphylococcus aureus; assay: Bactericidal activity against methicillin/ciprofloxacin/clindamycin-resistant Staphylococcus aureus USA100 NRS382 clinical isolate after 24 hrs; type: functional; settings: for MBC: USA100 NRS382, 24 h
[2] = test system: Staphylococcus aureus; assay: Antibacterial activity against methicillin/ciprofloxacin/clindamycin-resistant Staphylococcus aureus USA100 NRS382 clinical isolate after 18 to 20 hrs by broth microdilution method; type: functional
[3] = test system: Staphylococcus aureus; assay: Antibacterial activity against methicillin-resistant Staphylococcus aureus 2658 RCMB after 18 to 20 hrs by broth microdilution method; type: functional
[4] = test system: Staphylococcus aureus; assay: Bactericidal activity against methicillin/ciprofloxacin/gentamicin/clindamycin-resistant Staphylococcus aureus USA200 NRS383 clinical isolate after 24 hrs; type: functional; settings: for MBC: USA200 NRS383, 24 h
[5] = test system: Staphylococcus aureus; assay: Antibacterial activity against methicillin/ciprofloxacin/gentamicin/clindamycin-resistant Staphylococcus aureus USA200 NRS383 clinical isolate after 18 to 20 hrs by broth microdilution method; type: functional
[6] = Intrinsic clearance in human liver microsomes after 10 to 60 mins in absence of NADPH by LC/MS/MS analysis; type: ADME, microsome; settings: read-out: CLH
[7] = Intrinsic clearance in human liver microsomes after 10 to 60 mins in presence of NADPH by LC/MS/MS analysis; type: ADME, microsome; settings: read-out: CLH
[8] = test system: Staphylococcus aureus; assay: Bactericidal activity against mupirocin/rifampicin-resistant Staphylococcus aureus RN4220 NRS107 clinical isolate after 24 hrs; type: functional; settings: RN4220 NRS107, 24 h
[9] = test system: Staphylococcus aureus; assay: Bactericidal activity against vancomycin-resistant Staphylococcus aureus VRSA10 clinical isolate after 24 hrs; type: functional; settings: VRSA10, 24 h
[10] = test system: Staphylococcus aureus; assay: Bactericidal activity against methicillin-resistant Staphylococcus aureus USA400 NRS123 clinical isolate after 24 hrs; type: functional; settings: for MBC: USA400 NRS123, 24 h
[11] = test system: Staphylococcus aureus; assay: Bactericidal activity against vancomycin-resistant Staphylococcus aureus VRSA4 clinical isolate after 24 hrs; type: functional; settings: VRSA4, 24 h
[12] = test system: Staphylococcus aureus; assay: Bactericidal activity against methicillin/erythromycin/tetracycline-resistant Staphylococcus aureus USA300 NRS384 clinical isolate after 24 hrs; type: functional; settings: for MBC: USA300 NRS384, 24 h
[13] = Half life in human liver microsomes after 10 to 60 mins in absence of NADPH by LC/MS/MS analysis; type: ADME, microsome
[14] = Half life in human liver microsomes after 10 to 60 mins in presence of NADPH by LC/MS/MS analysis; type: ADME, microsome
[15] = test system: Staphylococcus aureus; assay: Antibacterial activity against mupirocin/rifampicin-resistant Staphylococcus aureus RN4220 NRS107 clinical isolate after 18 to 20 hrs by broth microdilution method; type: functional
[16] = test system: Staphylococcus aureus; assay: Antibacterial activity against methicillin-resistant Staphylococcus aureus USA400 NRS123 clinical isolate after 18 to 20 hrs by broth microdilution method; type: functional
[17] = test system: Staphylococcus aureus; assay: Antibacterial activity against methicillin/erythromycin/tetracycline-resistant Staphylococcus aureus USA300 NRS384 clinical isolate after 18 to 20 hrs by broth microdilution method; type: functional
[18] = test system: Staphylococcus aureus; assay: Antibacterial activity against vancomycin-resistant Staphylococcus aureus VRSA10 clinical isolate after 18 to 20 hrs by broth microdilution method; type: functional
[19] = test system: Staphylococcus aureus; assay: Antibacterial activity against vancomycin-resistant Staphylococcus aureus VRSA4 clinical isolate after 18 to 20 hrs by broth microdilution method; type: functional
[20] = test system: HaCaT; assay: Cytotoxicity against human HaCaT cells assessed as decrease in cell viability up to 8 ug/ml after 2 hrs by MTS assay; type: cell-based
[21] = test system: J774; assay: Cytotoxicity against mouse J774 cells assessed as decrease in cell viability at 8 ug/ml after 2 hrs by MTS assay; type: cell-based; settings: j774, 2 h
[22] = test system: Staphylococcus aureus; assay: Potentiation of vancomycin-mediated antibacterial activity against vancomycin-resistant Staphylococcus aureus VRSA10 clinical isolate assessed as vancomycin MIC at 0.5 times MIC preincubated for 30 mins followed by vancomycin addition measured after 20 to 22 hrs (reference value: 512 ug/ml); type: functional
[23] = test system: Staphylococcus aureus; assay: Potentiation of vancomycin-mediated antibacterial activity against vancomycin-resistant Staphylococcus aureus VRSA4 clinical isolate assessed as reduction in vancomycin MIC at 0.5 times MIC preincubated for 30 mins followed by vancomycin addition measured after 20 to 22 hrs relative to control; type: functional
[24] = test system: HaCaT; assay: Cytotoxicity against human HaCaT cells assessed as decrease in cell viability up to 16 ug/ml after 2 hrs by MTS assay; type: cell-based

Row | Structure (SMILES) | MBC [1] | MIC [2] | MIC [3] | MBC [4] | MIC [5] | MBC [8] | MBC [9] | MBC [10] | MBC [11] | MBC [12] | MIC [15] | MIC [16] | MIC [17] | MIC [18] | MIC [19] | also measured
1 | CCC(CC)COc1ccc(-c2nc(C)c(/C(C)=N/NC(=N)N)s2)cc1 | 32 mg/L (≈ 85.7 µM) | 32 mg/L (≈ 85.7 µM) | 7.81 mg/L (≈ 20.9 µM) | > 64 mg/L | 32 mg/L (≈ 85.7 µM) |  |  |  |  |  |  |  |  |  |  | 
2 | CC(=O)CC(c1ccccc1)c1c(O)c2ccccc2oc1=O (centres undefined) [WARFARIN] |  |  |  |  |  |  |  |  |  |  |  |  |  |  |  | microsomal CLint [6]: < 9.6 µL/min/mg; microsomal CLint [7]: < 9.6 µL/min/mg
3 | CC(=O)NC[C@H]1CN(c2ccc(N3CCOCC3)c(F)c2)C(=O)O1 [LINEZOLID] | 16 mg/L (≈ 47.4 µM) |  |  | 32 mg/L (≈ 94.9 µM) |  | 32 mg/L (≈ 94.9 µM) | 16 mg/L (≈ 47.4 µM) | 32 mg/L (≈ 94.9 µM) | 8 mg/L (≈ 23.7 µM) | 16 mg/L (≈ 47.4 µM) |  |  |  |  |  | 
4 | CCCCOc1ccc(-c2nc(C)c(/C(C)=N/NC(=N)N)s2)cc1 | > 128 mg/L | 32 mg/L (≈ 92.6 µM) | 15.6 mg/L (≈ 45.2 µM) | > 64 mg/L | 32 mg/L (≈ 92.6 µM) |  |  |  |  |  |  |  |  |  |  | microsomal CLint [6]: < 9.6 µL/min/mg; microsomal CLint [7]: < 9.6 µL/min/mg; half-life [13]: > 4 h; half-life [14]: > 4 h
5 | CCCCCCCCCOc1ccc(-c2nc(C)c(/C(C)=N/NC(=N)N)s2)cc1 | 8 mg/L (≈ 19.2 µM) |  | > 30 mg/L | 8 mg/L (≈ 19.2 µM) | 4 mg/L (≈ 9.62 µM) | 16 mg/L (≈ 38.5 µM) | 16 mg/L (≈ 38.5 µM) | 16 mg/L (≈ 38.5 µM) | 16 mg/L (≈ 38.5 µM) | 16 mg/L (≈ 38.5 µM) | 16 mg/L (≈ 38.5 µM) | 16 mg/L (≈ 38.5 µM) | 16 mg/L (≈ 38.5 µM) | 16 mg/L (≈ 38.5 µM) | 16 mg/L (≈ 38.5 µM) | 
6 | CCCCCCCOc1ccc(-c2nc(C)c(/C(C)=N/NC(=N)N)s2)cc1 | 1 mg/L (≈ 2.58 µM) | 1 mg/L (≈ 2.58 µM) | 0.74 mg/L (≈ 1.91 µM) | 1 mg/L (≈ 2.58 µM) | 0.5 mg/L (≈ 1.29 µM) | 2 mg/L (≈ 5.16 µM) | 2 mg/L (≈ 5.16 µM) | 4 mg/L (≈ 10.3 µM) | 2 mg/L (≈ 5.16 µM) | 2 mg/L (≈ 5.16 µM) | 2 mg/L (≈ 5.16 µM) | 2 mg/L (≈ 5.16 µM) | 2 mg/L (≈ 5.16 µM) | 2 mg/L (≈ 5.16 µM) | 2 mg/L (≈ 5.16 µM) | Activity [20]: Non-Toxic; Activity [21]: Toxic; MIC [22]: > 128 mg/L; fold change (FC) [23]: 4
7 | CCCCCOc1ccc(-c2nc(C)c(/C(C)=N/NC(=N)N)s2)cc1 |  |  | 1.95 mg/L (≈ 5.42 µM) | > 64 mg/L | 64 mg/L (≈ 178 µM) |  |  |  |  |  |  |  |  |  |  | 
8 | C/C(=N\NC(=N)N)c1sc(-c2ccc(OC3CCCC3)cc2)nc1C | 4 mg/L (≈ 11.2 µM) | 2 mg/L (≈ 5.59 µM) | 15.6 mg/L (≈ 43.7 µM) | 16 mg/L (≈ 44.8 µM) | 2 mg/L (≈ 5.59 µM) | 8 mg/L (≈ 22.4 µM) | 8 mg/L (≈ 22.4 µM) | 32 mg/L (≈ 89.5 µM) | 8 mg/L (≈ 22.4 µM) | 8 mg/L (≈ 22.4 µM) | 8 mg/L (≈ 22.4 µM) | 8 mg/L (≈ 22.4 µM) | 8 mg/L (≈ 22.4 µM) | 8 mg/L (≈ 22.4 µM) | 8 mg/L (≈ 22.4 µM) | Activity [1]: Dose-dependent effect; Activity [10]: Dose-dependent effect; Activity [24]: Non-Toxic; Activity [12]: Dose-dependent effect; Activity [4]: Dose-dependent effect
9 | C/C(=N\NC(=N)N)c1sc(-c2ccc(OCC(C)C)cc2)nc1C | 16 mg/L (≈ 46.3 µM) | 8 mg/L (≈ 23.2 µM) | 15.6 mg/L (≈ 45.2 µM) | 8 mg/L (≈ 23.2 µM) | 8 mg/L (≈ 23.2 µM) | 32 mg/L (≈ 92.6 µM) | 32 mg/L (≈ 92.6 µM) | > 32 mg/L | 32 mg/L (≈ 92.6 µM) | 32 mg/L (≈ 92.6 µM) | 32 mg/L (≈ 92.6 µM) | 16 mg/L (≈ 46.3 µM) | 16 mg/L (≈ 46.3 µM) | 16 mg/L (≈ 46.3 µM) | 16 mg/L (≈ 46.3 µM) | 
